From ChEMBL document CHEMBL3763016, “Design, synthesis and biological evaluation of 3'-benzylated analogs of 3'-epi-neoponkoranol as potent α-glucosidase inhibitors” (Eur J Med Chem, 2016)

Tests used:
[1] = Cytotoxicity against human HELF cells by MTT assay; format: cell-based
[2] = biological target: T1, Sucrase-isomaltase, intestinal (Rattus norvegicus, UniProt P23739); experiment: Inhibition of rat intestinal sucrase using sucrose as substrate incubated for 30 mins by glucose-oxidase method
[3] = biological target: T1, Sucrase-isomaltase, intestinal; experiment: Competitive inhibition of rat intestinal sucrase using sucrose as substrate incubated for 30 mins by Lineweaver-Burk plot analysis
[4] = biological target: Sucrase-isomaltase, intestinal (Rattus norvegicus) (UniProt P23739); experiment: Potency index, ratio of acarbose IC50 to compound IC50 for rat intestinal sucrase
Sequence of Sucrase-isomaltase, intestinal (Rattus norvegicus) (P23739 1-1013 limits assumed): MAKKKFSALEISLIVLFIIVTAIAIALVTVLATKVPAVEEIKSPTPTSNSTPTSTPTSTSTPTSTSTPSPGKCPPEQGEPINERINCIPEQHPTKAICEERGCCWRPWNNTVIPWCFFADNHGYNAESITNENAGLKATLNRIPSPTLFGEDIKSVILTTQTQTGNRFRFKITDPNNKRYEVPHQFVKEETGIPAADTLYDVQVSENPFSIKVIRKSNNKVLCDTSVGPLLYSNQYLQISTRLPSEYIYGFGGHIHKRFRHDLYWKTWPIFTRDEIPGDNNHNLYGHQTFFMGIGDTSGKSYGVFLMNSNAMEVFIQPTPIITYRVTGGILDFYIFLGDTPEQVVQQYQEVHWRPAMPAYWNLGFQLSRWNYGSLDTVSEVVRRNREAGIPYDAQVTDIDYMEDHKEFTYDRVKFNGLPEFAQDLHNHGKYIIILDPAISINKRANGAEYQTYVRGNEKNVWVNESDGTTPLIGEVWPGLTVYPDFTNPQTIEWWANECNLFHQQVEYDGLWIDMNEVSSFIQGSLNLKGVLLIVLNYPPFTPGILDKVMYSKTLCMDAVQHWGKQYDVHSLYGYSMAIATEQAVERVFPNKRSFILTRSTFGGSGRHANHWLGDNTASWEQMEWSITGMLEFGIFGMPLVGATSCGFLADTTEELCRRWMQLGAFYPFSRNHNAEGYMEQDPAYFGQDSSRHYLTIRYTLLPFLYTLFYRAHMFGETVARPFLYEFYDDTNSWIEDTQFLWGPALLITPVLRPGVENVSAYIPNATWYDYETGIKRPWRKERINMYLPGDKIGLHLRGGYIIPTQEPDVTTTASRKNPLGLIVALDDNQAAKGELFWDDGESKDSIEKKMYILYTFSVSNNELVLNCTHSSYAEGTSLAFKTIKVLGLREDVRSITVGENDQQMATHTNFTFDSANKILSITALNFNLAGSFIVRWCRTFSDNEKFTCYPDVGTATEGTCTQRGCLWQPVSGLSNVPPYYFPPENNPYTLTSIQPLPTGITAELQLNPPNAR
Sequence of Sucrase-isomaltase, intestinal (Rattus norvegicus) (P23739 1014-1841 limits assumed): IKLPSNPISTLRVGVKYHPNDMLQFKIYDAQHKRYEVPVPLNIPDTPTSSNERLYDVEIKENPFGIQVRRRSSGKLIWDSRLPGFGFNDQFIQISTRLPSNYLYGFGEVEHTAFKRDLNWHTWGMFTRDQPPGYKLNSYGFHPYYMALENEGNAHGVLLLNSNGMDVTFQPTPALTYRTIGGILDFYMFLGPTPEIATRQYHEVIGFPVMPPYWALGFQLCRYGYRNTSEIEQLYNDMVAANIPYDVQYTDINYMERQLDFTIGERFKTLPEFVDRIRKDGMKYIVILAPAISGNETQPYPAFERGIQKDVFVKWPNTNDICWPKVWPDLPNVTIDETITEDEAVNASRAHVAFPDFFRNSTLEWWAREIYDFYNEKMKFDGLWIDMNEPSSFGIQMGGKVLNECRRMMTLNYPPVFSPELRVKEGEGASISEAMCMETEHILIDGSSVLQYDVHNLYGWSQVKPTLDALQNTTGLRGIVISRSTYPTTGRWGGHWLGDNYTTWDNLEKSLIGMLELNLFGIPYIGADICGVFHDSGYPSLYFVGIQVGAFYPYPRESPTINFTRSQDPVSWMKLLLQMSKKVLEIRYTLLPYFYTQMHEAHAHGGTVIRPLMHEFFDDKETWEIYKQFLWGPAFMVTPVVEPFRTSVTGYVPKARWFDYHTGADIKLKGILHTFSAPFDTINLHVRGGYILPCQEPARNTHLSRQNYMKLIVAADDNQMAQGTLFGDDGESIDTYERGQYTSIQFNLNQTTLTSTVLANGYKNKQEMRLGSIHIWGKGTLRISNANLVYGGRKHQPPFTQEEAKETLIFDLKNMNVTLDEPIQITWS

[5] = Inhibition of rat intestinal maltase using maltose as substrate incubated for 30 mins by glucose-oxidase method
[6] = Competitive inhibition of rat intestinal maltase using maltose as substrate incubated for 30 mins by Lineweaver-Burk plot analysis

T1 sequence (P23739 1-1013 limits assumed): as the sequence (P23739 1-1013 limits assumed) above
T1 sequence (P23739 1014-1841 limits assumed): as the sequence (P23739 1014-1841 limits assumed) above

SMILES | IC50 [1] | IC50 [2] | Ki [3] | Ratio IC50 [4] | IC50 [5] | Ki [6]
OC[C@@H]1[C@@H](O)[C@H](O)C[S+]1C[C@@H](O)[C@H](OCc1ccccc1C(F)(F)F)[C@H](O)[C@@H](O)CO.[Cl-] (some centres undefined) | > 500000 nM | 200 nM | 216 nM | 10 | 2500 nM | 0.28 µg/mL
OC[C@@H]1[C@@H](O)[C@H](O)C[S+]1C[C@@H](O)[C@H](OCc1ccc(C(F)(F)F)cc1)[C@H](O)[C@@H](O)CO.[Cl-] (some centres undefined) |  | 4600 nM | 786 nM |  | 10000 nM | 0.74 µg/mL
OC[C@@H]1[C@@H](O)[C@H](O)C[S+]1C[C@@H](O)[C@H](O)[C@H](O)[C@@H](O)CO (some centres undefined) |  | 300 nM |  |  | 2000 nM | 
CCO[C@H]([C@H](O)[C@@H](O)CO)[C@H](O)C[S+]1C[C@@H](O)[C@H](O)[C@H]1CO (some centres undefined) |  | 270 nM |  |  | 9500 nM | 
O=[N+]([O-])c1ccc(CO[C@H]([C@H](O)[C@@H](O)CO)[C@H](O)C[S+]2C[C@@H](O)[C@H](O)[C@H]2CO)cc1 (some centres undefined) |  | 4200 nM |  |  | 32400 nM | 
OC[C@@H]1[C@@H](O)[C@H](O)C[S+]1C[C@@H](O)[C@H](OCc1cccc(Cl)c1)[C@H](O)[C@@H](O)CO (some centres undefined) |  | 510 nM |  |  | 5200 nM | 
O=[N+]([O-])c1ccccc1CO[C@H]([C@H](O)[C@@H](O)CO)[C@H](O)C[S+]1C[C@@H](O)[C@H](O)[C@H]1CO.[Cl-] (some centres undefined) | > 500000 nM | 320 nM | 185 nM |  | 3500 nM | 0.6 µg/mL
OC[C@@H]1[C@@H](O)[C@H](O)C[S+]1C[C@@H](O)[C@H](OCc1ccccc1)[C@H](O)[C@@H](O)CO (some centres undefined) |  | 1900 nM |  |  | 5300 nM | 
OC[C@@H]1[C@@H](O)[C@H](O)C[S+]1C[C@@H](O)[C@H](OCc1ccc(Cl)cc1)[C@H](O)[C@@H](O)CO (some centres undefined) |  | 5600 nM |  |  | 18300 nM | 
OC[C@@H]1[C@@H](O)[C@H](O)C[S+]1C[C@@H](O)[C@H](OCc1cccc(C(F)(F)F)c1)[C@H](O)[C@@H](O)CO.[Cl-] (some centres undefined) |  | 450 nM | 354 nM |  | 9600 nM | 0.66 µg/mL
OCC(CO)N[C@H]1C[C@](O)(CO)[C@@H](O)[C@H](O)[C@H]1O [VOGLIBOSE] |  | 300 nM |  |  |  | 
O=[N+]([O-])c1cccc(CO[C@H]([C@H](O)[C@@H](O)CO)[C@H](O)C[S+]2C[C@@H](O)[C@H](O)[C@H]2CO)c1 (some centres undefined) |  | 210 nM |  |  | 6700 nM | 
OC[C@@H]1[C@@H](O)[C@H](O)C[S+]1C[C@@H](O)[C@H](OCc1ccccc1Cl)[C@H](O)[C@@H](O)CO.[Cl-] (some centres undefined) | > 500000 nM | 700 nM | 210 nM |  | 8200 nM | 0.45 µg/mL
